# Literature values, collected in patent US6086864A, “Pharmaceutical formulations comprising polythiourea and methods of use thereof” (Merrell Pharmaceuticals Inc., priority 1997, dated 2000).
# Assays:
# [1] = system: viral protein responsible for cell recognition; details: purified form of heparin
# [2] = in vivo
substance,measurement,setting,value
heparin,inhibition of host cell infection,[1],limited inhibition of host cell infection
same,side effects,[2],hemorrhage and increased clot formation time as well as thrombocytopenia
